Molecular target: human chemokine receptor CXCR7 (Homo sapiens (Human), UniProt P25106)
Experiment: Tango CXCR7-bla U2OS beta-arrestin recruitment assay (beta-lactamase reporter, FRET), antagonism of CXCL12/SDF1-α;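 also: compounds preincubated 15 min before CXCL12 addition, then 22 h at 37 °C, FRET emission ratio read with CCF4-AM substrate after 2 h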
Type: cell-based
Conditions: antagonistic effect on CXCR7; Tango CXCR7-bla U2OS cells, CXCL12/SDF1-α at its EC80

Chain of human chemokine receptor CXCR7 (P25106 whole entry): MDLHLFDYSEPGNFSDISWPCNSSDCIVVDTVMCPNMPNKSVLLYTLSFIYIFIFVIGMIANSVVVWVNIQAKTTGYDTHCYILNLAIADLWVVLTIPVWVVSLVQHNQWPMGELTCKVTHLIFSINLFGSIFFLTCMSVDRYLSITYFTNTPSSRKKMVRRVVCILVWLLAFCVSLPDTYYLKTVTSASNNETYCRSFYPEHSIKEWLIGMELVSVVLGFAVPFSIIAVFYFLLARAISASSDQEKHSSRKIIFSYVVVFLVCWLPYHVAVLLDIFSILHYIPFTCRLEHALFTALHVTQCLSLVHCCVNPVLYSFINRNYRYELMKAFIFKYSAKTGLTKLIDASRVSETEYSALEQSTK

Row | SMILES | IC50
1 | O=C(N[C@@H]1CCN(CC2CC2)C[C@H]1C(=O)NC1(c2ncccn2)CC1)c1noc(-c2ccc(F)cc2F)c1F (racemic) [Example 3.022, rac-(3R*,4R*)-1-Cyclopropylmethyl-4-{[5-(2,4-difluoro-phenyl)-4-fluoro-isoxazole-3-carbonyl]-amino}-piperidine-3-carboxylic acid (1-pyrimidin-2-yl-cyclopropyl)-amide] | 28 nM
2 | O=C(N[C@@H]1CCN(C2CCCCC2)C[C@H]1C(=O)N1CCC(O)C1)c1cc(-c2ccc(F)cc2F)on1 (relative stereo) [Example 1.028, 5-(2,4-Difluoro-phenyl)-isoxazole-3-carboxylic acid [(3R*,4R*)-1-cyclohexyl-3-((3RS)-3-hydroxy-pyrrolidine-1-carbonyl)-piperidin-4-yl]-amide] | 916 nM
3 | O=C(N[C@@H]1CCN(C2CCCCC2)C[C@H]1C(=O)NCC1CCCO1)c1cc(-c2ccc(F)cc2F)on1 (relative stereo) [Example 1.044, (3R*,4R*)-1-Cyclohexyl-4-{[5-(2,4-difluoro-phenyl)-isoxazole-3-carbonyl]-amino}-piperidine-3-carboxylic acid ((2RS)-tetrahydro-furan-2-ylmethyl)-amide] | 556 nM
4 | CC(NC(=O)[C@@H]1CN(C2CCCCC2)CC[C@H]1NC(=O)c1cc(-c2ccc(F)cc2F)on1)c1ccncn1 (relative stereo) [Example 1.063, (3R*,4R*)-1-Cyclohexyl-4-{[5-(2,4-difluoro-phenyl)-isoxazole-3-carbonyl]-amino}-piperidine-3-carboxylic acid ((1RS)-1-(pyrimidin-4-yl)-ethyl)-amide] | 107 nM
5 | O=C(N[C@@H]1CCN(C2CCCCC2)C[C@H]1C(=O)NC(c1ccccn1)C(F)(F)F)c1cc(-c2ccc(F)cc2F)on1 (relative stereo) [Example 1.069, (3R*,4R*)-1-Cyclohexyl-4-{[5-(2,4-difluoro-phenyl)-isoxazole-3-carbonyl]-amino}-piperidine-3-carboxylic acid ((1RS)-2,2,2-trifluoro-1-pyridin-2-yl-ethyl)-amide] | 556 nM
6 | O=C(N[C@@H]1CCN(C2CCCCC2)C[C@H]1C(=O)NC[C@H](O)c1ccccc1)c1cc(-c2ccc(F)cc2F)on1 (relative stereo) [Example 1.072, (3R*,4R*)-1-Cyclohexyl-4-{[5-(2,4-difluoro-phenyl)-isoxazole-3-carbonyl]-amino}-piperidine-3-carboxylic acid ((R)-2-hydroxy-2-phenyl-ethyl)-amide] | 32 nM
7 | O=C(N[C@@H]1CCN(C2CCCCC2)C[C@H]1C(=O)NC[C@@H](O)c1ccccc1)c1cc(-c2ccc(F)cc2F)on1 (relative stereo) [Example 1.073, (3R*,4R*)-1-Cyclohexyl-4-{[5-(2,4-difluoro-phenyl)-isoxazole-3-carbonyl]-amino}-piperidine-3-carboxylic acid ((S)-2-hydroxy-2-phenyl-ethyl)-amide] | 118 nM
8 | CC(CO)NC(=O)[C@@H]1CN(C2CCCCC2)CC[C@H]1NC(=O)c1cc(-c2ccc(F)cc2F)on1 (relative stereo) [Example 1.076, (3R*,4R*)-1-Cyclohexyl-4-{[5-(2,4-difluoro-phenyl)-isoxazole-3-carbonyl]-amino}-piperidine-3-carboxylic acid ((1RS)-2-hydroxy-1-methyl-ethyl)-amide] | 604 nM
9 | CC(NC(=O)[C@@H]1CN(C2CCCCC2)CC[C@H]1NC(=O)c1cc(-c2ccc(F)cc2F)on1)C(F)F (relative stereo) [Example 1.077, (3R*,4R*)-1-Cyclohexyl-4-{[5-(2,4-difluoro-phenyl)-isoxazole-3-carbonyl]-amino}-piperidine-3-carboxylic acid ((1RS)-2,2-difluoro-1-methyl-ethyl)-amide] | 443 nM

More lines, now with the values ahead:

Row | IC50 | SMILES
10 | 153 nM | O=C(N[C@@H]1CCN(CC2CC2)C[C@H]1C(=O)NC1(c2ccccn2)CC1)c1cc(-c2ccccc2F)on1 (racemic) [Example 3.013, rac-(3R*,4R*)-1-Cyclopropylmethyl-4-{[5-(2-fluoro-phenyl)-isoxazole-3-carbonyl]-amino}-piperidine-3-carboxylic acid (1-pyridin-2-yl-cyclopropyl)-amide]
11 | 158 nM | O=C(N[C@@H]1CCN(CC2CC2)C[C@H]1C(=O)NC1(c2ccccn2)CC1)c1cc(-c2ccc(F)cc2)on1 (racemic) [Example 3.014, rac-(3R*,4R*)-1-Cyclopropylmethyl-4-{[5-(4-fluoro-phenyl)-isoxazole-3-carbonyl]-amino}-piperidine-3-carboxylic acid (1-pyridin-2-yl-cyclopropyl)-amide]
12 | 170 nM | O=C(N[C@@H]1CCN(CC2CC2)C[C@H]1C(=O)NC1(c2ccccn2)CC1)c1ncc(-c2ccc(F)cc2F)o1 (racemic) [Example 3.015, rac-(3R*,4R*)-1-Cyclopropylmethyl-4-{[5-(2,4-difluoro-phenyl)-oxazole-2-carbonyl]-amino}-piperidine-3-carboxylic acid (1-pyridin-2-yl-cyclopropyl)-amide]
13 | 105 nM | O=C(N[C@@H]1CCN(CC2CC2)C[C@H]1C(=O)NC1(c2ccccn2)CC1)c1nnc(-c2ccc(F)cc2F)o1 (racemic) [Example 3.016, rac-(3R*,4R*)-1-Cyclopropylmethyl-4-{[5-(2,4-difluoro-phenyl)-[1,3,4]oxadiazole-2-carbonyl]-amino}-piperidine-3-carboxylic acid (1-pyridin-2-yl-cyclopropyl)-amide]
14 | 661 nM | CN(C)C(=O)[C@@H]1CN(C2CCCC2)CC[C@H]1NC(=O)c1ncc(-c2ccc(F)cc2F)o1 (racemic) [Example 3.017, rac-(3R*,4R*)-1-Cyclopentyl-4-{[5-(2,4-difluoro-phenyl)-oxazole-2-carbonyl]-amino}-piperidine-3-carboxylic acid dimethylamide]
15 | 198 nM | CN(C)C(=O)[C@@H]1CN(C2CCCCC2)CC[C@H]1NC(=O)c1ncc(-c2ccc(F)cc2F)o1 (racemic) [Example 3.018, rac-(3R*,4R*)-1-Cyclohexyl-4-{[5-(2,4-difluoro-phenyl)-oxazole-2-carbonyl]-amino}-piperidine-3-carboxylic acid dimethylamide]
16 | 778 nM | CN(C)C(=O)[C@@H]1CN(C2CCCCC2)CC[C@H]1NC(=O)c1nc(-c2ccc(F)cc2F)no1 (racemic) [Example 3.019, rac-(3R*,4R*)-1-Cyclohexyl-4-{[3-(2,4-difluoro-phenyl)-[1,2,4]oxadiazole-5-carbonyl]-amino}-piperidine-3-carboxylic acid dimethylamide]
17 | 40 nM | O=C(N[C@@H]1CCN(CC2CC2)C[C@H]1C(=O)NC1(c2ncccn2)CC1)c1noc(-c2ccc(F)cc2)c1F (racemic) [Example 3.021, rac-(3R*,4R*)-1-Cyclopropylmethyl-4-{[4-fluoro-5-(4-fluoro-phenyl)-isoxazole-3-carbonyl]-amino}-piperidine-3-carboxylic acid (1-pyrimidin-2-yl-cyclopropyl)-amide]
18 | 857 nM | CN(C)C(=O)[C@]1(C)CN(C2CCCCC2)CC[C@H]1NC(=O)c1cc(-c2ccc(F)cc2F)on1 (racemic) [Example 5.002, rac-(3R*,4R*)-1-Cyclohexyl-4-{[5-(2,4-difluoro-phenyl)-isoxazole-3-carbonyl]-amino}-3-methyl-piperidine-3-carboxylic Acid Dimethylamide]

Source: patent US11306078B2, “Piperidine CXCR7 receptor modulators” (IDORSIA PHARMACEUTICALS LTD., priority 2016, dated 2022)
